Activity calls are given as the source filed them. The rule behind the calls is not given here.
Legend:
Mus musculus [1] = assay: In vivo agonist activity against PPARalpha/delta assessed as upregulation of Ucp3 mRNA expression in C57BL/6Nifdc mouse skeletal muscle at 10 mg/kg, po for 4 days; assay type: functional, organism-based; conditions: time 4.0 day
Mus musculus [2] = assay: In vivo agonist activity at PPARalpha/delta assessed as upregulation of […] mRNA expression in C57BL/6Nifdc mouse liver at 10 mg/kg, po for 4 days; assay type: functional, organism-based; conditions: time 4.0 day
HepG2 [3] = assay: Agonist activity against PPARalpha/delta (unknown origin) assessed as upregulation of CPT1A mRNA expression in human HepG2 cells at 8 nM incubated for 12 hrs by RT-PCR analysis; assay type: cell-based; conditions: filed as agonist
HepG2 [4] = assay: Agonist activity against PPARalpha/delta (unknown origin) assessed as upregulation of ACADVL mRNA expression in human HepG2 cells incubated for 12 hrs by RT-PCR analysis; assay type: cell-based; conditions: filed as agonist, dose 8-200 nM
Mus musculus [5] = assay: In vivo agonist activity at PPARalpha/delta assessed as upregulation of Kit11 mRNA expression in C57BL/6Nifdc mouse liver at 10 mg/kg, po for 4 days; assay type: functional, organism-based; conditions: time 4.0 day
Mus musculus [6] = assay: In vivo agonist activity at PPARalpha/delta assessed as upregulation of Fads2 mRNA expression in C57BL/6Nifdc mouse liver at 10 mg/kg, po for 4 days; assay type: functional, organism-based; conditions: time 4.0 day
COS7 = assay: Agonist activity at human FXR (193 to 486 residues) in Cos7 cells transfected with LBD-Gal4 and pGL435 Gal4 UAS Luc reporter plasmid at 10 uM by reporter gene assay; assay type: cell-based
Mus musculus [7] = assay: In vivo agonist activity against PPARalpha/delta assessed as upregulation of Pdk4 mRNA expression in C57BL/6Nifdc mouse skeletal muscle at 10 mg/kg, po for 4 days; assay type: functional, organism-based; conditions: time 4.0 day
Mus musculus [8] = assay: In vivo agonist activity against PPARalpha/delta assessed as upregulation of Me1 mRNA expression in C57BL/6Nifdc mouse liver at 10 mg/kg, po for 4 days; assay type: functional, organism-based; conditions: time 4.0 day
Mus musculus [9] = assay: In vivo agonist activity at PPARalpha/delta assessed as upregulation of Cpt2 mRNA expression in C57BL/6Nifdc mouse liver at 10 mg/kg, po for 4 days; assay type: functional, organism-based; conditions: time 4.0 day
Mus musculus [10] = assay: In vivo agonist activity against PPARalpha/delta assessed as upregulation of Ugt1a9 mRNA expression in C57BL/6Nifdc mouse liver at 10 mg/kg, po for 4 days; assay type: functional, organism-based; conditions: time 4.0 day
Mus musculus [11] = assay: Anti-fibrosis effect in HF-CDAA-induced nonalcoholic steatohepatitis C57BL/6JNifdc mouse model assessed as expression of Col1a1 marker at 10 mg/kg, po after 20 hrs by Western blot analysis; assay type: functional, organism-based
Mus musculus [12] = assay: In vivo agonist activity at PPARalpha/delta assessed as upregulation of Acox1 mRNA expression in C57BL/6Nifdc mouse liver at 10 mg/kg, po for 4 days; assay type: functional, organism-based; conditions: time 4.0 day
Mus musculus [13] = assay: In vivo agonist activity against PPARalpha/delta assessed as upregulation of Nfkbia-mRNA expression in C57BL/6Nifdc mouse skeletal muscle at 10 mg/kg, po for 4 days; assay type: functional, organism-based; conditions: time 4.0 day
Mus musculus [14] = assay: In vivo agonist activity against PPARalpha/delta assessed as upregulation of -Retsat mRNA expression in C57BL/6Nifdc mouse skeletal muscle at 10 mg/kg, po for 4 days; assay type: functional, organism-based; conditions: time 4.0 day
Mus musculus [15] = assay: In vivo agonist activity against PPARalpha/delta assessed as upregulation of Cd36 mRNA expression in C57BL/6Nifdc mouse skeletal muscle at 10 mg/kg, po for 4 days; assay type: functional, organism-based; conditions: time 4.0 day
Mus musculus [16] = assay: In vivo agonist activity at PPARalpha/delta assessed as upregulation of Lpin2 mRNA expression in C57BL/6Nifdc mouse liver at 10 mg/kg, po for 4 days; assay type: functional, organism-based; conditions: time 4.0 day
Mus musculus [17] = assay: In vivo agonist activity at PPARalpha/delta assessed as upregulation of Lipa mRNA expression in C57BL/6Nifdc mouse liver at 10 mg/kg, po for 4 days; assay type: functional, organism-based; conditions: time 4.0 day
Mus musculus [18] = assay: In vivo agonist activity at PPARalpha/delta assessed as upregulation of Pex11a mRNA expression in C57BL/6Nifdc mouse liver at 10 mg/kg, po for 4 days; assay type: functional, organism-based; conditions: time 4.0 day
Mus musculus [19] = assay: In vivo agonist activity at PPARalpha/delta assessed as upregulation of -Ehhadh mRNA expression in C57BL/6Nifdc mouse liver at 10 mg/kg, po for 4 days; assay type: functional, organism-based; conditions: time 4.0 day
Mus musculus [20] = assay: In vivo agonist activity at PPARalpha/delta assessed as upregulation of Csnk1g2 mRNA expression in C57BL/6Nifdc mouse liver at 10 mg/kg, po for 4 days; assay type: functional, organism-based; conditions: time 4.0 day
Mus musculus [21] = assay: In vivo agonist activity at PPARalpha/delta assessed as upregulation of Lpf5 mRNA expression in C57BL/6Nifdc mouse liver at 10 mg/kg, po for 4 days; assay type: functional, organism-based; conditions: time 4.0 day
Mus musculus [22] = assay: In vivo agonist activity at PPARalpha/delta assessed as upregulation of Retsat-mRNA expression in C57BL/6Nifdc mouse liver at 10 mg/kg, po for 4 days; assay type: functional, organism-based; conditions: time 4.0 day
Mus musculus [23] = assay: Anti-inflammatory activity in HF-CDAA-induced nonalcoholic steatohepatitis C57BL/6JNifdc mouse model assessed as decrease in Il1b mRNA expression at 10 mg/kg, po; assay type: functional, organism-based
AML12 = assay: Agonist activity against PPARalpha/delta (unknown origin) assessed as upregulation of Pdk4 mRNA expression in […] cells at 8 nM incubated for 12 hrs by RT-PCR analysis; assay type: cell-based; conditions: filed as agonist
Mus musculus [24] = assay: In vivo agonist activity against PPARalpha/delta assessed as upregulation of Fabp1 mRNA expression in C57BL/6Nifdc mouse liver at 10 mg/kg, po for 4 days; assay type: functional, organism-based; conditions: time 4.0 day
Mus musculus [25] = assay: Anti-inflammatory activity in HF-CDAA-induced nonalcoholic steatohepatitis C57BL/6JNifdc mouse model assessed as decrease in Adgre1 mRNA expression at 10 mg/kg, po; assay type: functional, organism-based
Mus musculus [26] = assay: In vivo agonist activity at PPARalpha/delta assessed as upregulation of Gpd1 mRNA expression in C57BL/6Nifdc mouse liver at 10 mg/kg, po for 4 days; assay type: functional, organism-based; conditions: time 4.0 day
Mus musculus [27] = assay: In vivo agonist activity against PPARalpha/delta assessed as upregulation of Pdk4 mRNA expression in C57BL/6Nifdc mouse liver at 10 mg/kg, po for 4 days; assay type: functional, organism-based; conditions: time 4.0 day
[28] = Microsomal stability in human liver microsomes assessed as terminal elimination half life at 1 uM measured upto 60 mins by LC-MS/MS-11 analysis; assay type: ADME, Microsome
C2C12 = assay: Agonist activity against PPARalpha/delta (unknown origin) assessed as upregulation of Cpt1A mRNA expression in […] cells at 8 nM incubated for 12 hrs by RT-PCR analysis; assay type: cell-based; conditions: filed as agonist
Mus musculus [29] = assay: In vivo agonist activity against PPARalpha/delta assessed as upregulation of Acs15 mRNA expression in C57BL/6Nifdc mouse liver at 10 mg/kg, po for 4 days; assay type: functional, organism-based; conditions: time 4.0 day
Mus musculus [30] = assay: In vivo agonist activity against PPARalpha/delta assessed as upregulation of -Mlycd mRNA expression in C57BL/6Nifdc mouse skeletal muscle at 10 mg/kg, po for 4 days; assay type: functional, organism-based; conditions: time 4.0 day
Mus musculus [31] = assay: Anti-inflammatory activity in HF-CDAA-induced nonalcoholic steatohepatitis C57BL/6JNifdc mouse model assessed as decrease in Tnf mRNA expression at 10 mg/kg, po; assay type: functional, organism-based

Structure (SMILES): Cc1cc(Cn2ncn(-c3ccc(OC(F)(F)F)cc3)c2=O)cc(C)c1OC(C)(C)C(=O)O
- Activity (Mus musculus [1]): Active
- Activity (Mus musculus [2]): Active
- Activity (HepG2 [3]): Active
- Activity (HepG2 [4]): Dose-Dependent Effect
- Activity (Mus musculus [5]): Active
- Activity (Mus musculus [6]): Active
- Activity (COS7): inactive
- Activity (Mus musculus [7]): Active
- Activity (Mus musculus [8]): Active
- Activity (Mus musculus [9]): Active
- Activity (Mus musculus [10]): Active
- Activity (Mus musculus [11]): Active
- Activity (Mus musculus [12]): Active
- Activity (Mus musculus [13]): Active
- Activity (Mus musculus [14]): Active
- Activity (Mus musculus [15]): Active
- Activity (Mus musculus [16]): Active
- Activity (Mus musculus [17]): Active
- Activity (Mus musculus [18]): Active
- Activity (Mus musculus [19]): Active
- Activity (Mus musculus [20]): Active
- Activity (Mus musculus [21]): Active
- Activity (Mus musculus [22]): Active
- Activity (Mus musculus [23]): Active
- Activity (AML12): Active
- Activity (Mus musculus [24]): Active
- Activity (Mus musculus [25]): Active
- Activity (Mus musculus [26]): Active
- Activity (Mus musculus [27]): Active
- half-life at 1 µM [28]: > 2 h
- Activity (C2C12): Active
- Activity (Mus musculus [29]): Active
- Activity (Mus musculus [30]): Active
- Activity (Mus musculus [31]): Active

Reference: ChEMBL document CHEMBL5042526, “Design, Synthesis, and Biological Evaluation of Triazolone Derivatives as Potent PPARα/δ Dual Agonists for the Treatment of Nonalcoholic Steatohepatitis” (J Med Chem, 2022)
